Measurements from US4156731A, “Heterocyclic oxime compounds and carbamoyloxime derivatives” (priority 1976, dated 1979).

Assays:
Assay type in all cases: in vivo
Set-up in all cases: key: A: Excellent control; B: Partial control; C: No control
[1] = test system: bean aphid (Aphis fabae Scop.); assay: Bean Aphid Foliage Spray Test; settings: 500 ppm foliage spray, 24 hour holding period
Protocol: (§1) Selected species of the new compounds were evaluated to determine their pesticidal activity against mites and certain insects, including anaphid, a caterpillar, a beetle and a fly.
(§2) Suspensions of the test compounds were prepared by dissolving one gram of compound in 50 milliliters of acetone in which had been dissolved 0.1 gram (10 percent of the weight of compound) of an alkylphenoxy polyethoxyethanol surfactant, as an emulsifying or dispersing agent. The resulting solution was mixed into 150 milliliters of water to give roughly 200 milliliters of a suspension containing the compound in finely divided form. The thus-prepared stock suspension contained 0.5 percent by weight of test compound. The test concentrations in parts per million by weight employed in the tests described hereinbelow were obtained by appropriate dilutions of the stock suspension with water. The test procedures were as follows:
Bean Aphid Foliage Spray Test
Adults and nymphal stages of the bean aphid (Aphis fabae Scop.) reared on potted dwarf nasturtium plants at 65°-70° F. and 50-70 per cent relative humidity, constituted the test insects. For testing purposes, the number of aphids per pot was standardized to 100-150 by trimming plants containing excess aphids.
The test compounds were formulated by diluting the stock suspension with water to give a suspension containing 500 parts of test compound per million parts of final formulation.
The potted plants (one pot per compound tested) infested with 100-150 aphids, were placed on a revolving turntable and sprayed with 100-110 milliliters of test compound formulation by use of a DeVilbiss spray gun set at 40 psig. air pressure. This application, which lasted 25 seconds, was sufficient to wet the plants to run-off. As a control, 100-110 milliliters of a water-acetone-emulsifier solution containing no test compound were also sprayed on infested plants. After spraying, the pots were placed on their sides on a sheet of white standard mimeograph paper which had been previously ruled to facilitate counting. Temperature and humidity in the test room during the 24 hour holding period were 65°-70° F. and 50-70 per cent, respectively. Aphids which fell into the paper and were unable to remain standing after being uprighted were considered dead. Aphids remaining on the plants wre observed closely for movement and those which were unable to move the length of the body upon stimulator by prodding were considered dead. Per cent mortality was recorded for various concentration levels.
(§3) In these tests the pesticidal activity of the compounds against aphid, mite, Southern Armyworm, Mexican Bean Beetle, and house fly was rated as follows: […]

[2] = test system: two spotted mite (Tetranychus urticae Koch); assay: Mite Foliage Spray Test; settings: 500 ppm foliage spray, six days
Protocol: as §1, §2
Adults and nymphal stages of the two spotted mite (Tetranychus urticae Koch), reared on Tendergreen bean plants at 80±5 per cent relative humidity, were the test organisms. Infested leaves from a stock culture were placed on the primary leaves of two bean plants six to eight inches in height, growing in a two-and-a-half inch clay pot. 150-200 mites, a sufficient number for testing, transferred from the excised leaves to the fresh plants in a period of twenty four hours. Following the twenty four hour transfer period, the excised leaves were removed from the infested plants. The test compounds were formulated by diluting the stock suspension with water to give a suspension with water to give a suspension containing 500 parts of test compound per million parts of final formulation. The potted plants (one pot per compound) were placed on a revolving turntable and sprayed with 100-110 milliliters of test compound formulation by use of a DeVilbiss spray gun set at 40 psig. air pressure. This application, which lasted for 25 seconds, was sufficient to wet the plants to run-off. As a control, 100-110 milliliters of a water solution containing acetone and emulsifier in the same concentrations as the test compound formulation, but containing no test compound, were also sprayed on infested plants. The sprayed plants were held at 80±5 per cent relative humidity for six days, after which a mortality count of motile forms were made. Microscopic examination for motile forms was made on the leaves of the test plants. Any individual which was capable of locomotion upon prodding, was considered living.
as §3

[3] = test system: house flies (Musca domestica, L.); assay: Fly Bait Test; settings: adults, 500 ppm in sugar bait, twenty four hours
Protocol: as §1, §2
Four to six day old adult house flies (Musca domestica, L.) reared according to the specifications of the Chemical Specialities Manufacturing Association (Blue Book, McNair-Dorland Co., NY., 1954; pages 234-244, 261) under controlled conditions of 80°±5° F. and 50±5 per cent relative humidity, were the test insects. The flies were immobilized by anesthetizing with carbon dioxide and twenty five immobilized individuals, males and females, were transferred to a cage consisting of a standard food stainer about five inches in diameter which was inverted over a wrapping-paper-covered surface. The test compounds were formulated by diluting the stock suspension with a 10 per cent (by weight) sugar solution to give a suspension containing 500 parts of test compound per million parts of final formulation, by weight. Ten milliliters of the test formulation were added to a souffle cup containing a one inch square of an absorbent cotton pad. This bait cup was introduced and centered on the blotting paper under the food strainer prior to admitting the anesthetized flies. The caged flies were allowed to feed on the bait for twenty four hours, at a temperature of 80°±5° F. and the relative humidity of 50±5 per cent.
as §3

[4] = test system: Mexican bean beetle (Epilachna varivestis, Muls.); assay: Mexican Bean Beetle Leaf Spray Test; settings: fourth instar larvae, 500 ppm leaf spray, three days
Protocol: as §1, §2
Mexican Bean Beetle Leaf Spray Test
Fourth instar larvae of the Mexican bean beetle (Epilachna varivestis, Muls.), reared on Tendergreen bean plants at a temperature of 80°±5° F. and 50±5 per cent relative humidity, were the test insects.
The test compounds were formulated by diluting the stock suspension with water to give a suspension containing 500 parts of test compound per million parts of final formulation. Potted Tendergreen bean plants of standard height and age were placed on a revolving turntable and sprayed with 100-110 milliliters of test compound formulation by use of DeVilbiss spray gun set at 10 psig air pressure. This application, which lasted 25 seconds, was sufficient to wet plants to run-off. As a control, 100-110 milliliters of a water-acetone-emulsifier solution containing no test compound were also sprayed on infested plants. When dry, the paired leaves were separated and each was placed in a 9 centimeter Petri dish lined with moistened filter paper. Five randomly selected larvae were introduced into each dish, and the dishes were closed. The closed dishes were labeled and held at a temperature of […]. for three days. Although the larvae could easily consume the leaf within 24 to 48 hours, no more food was added. Larvae which were unable to move the length of the body, even upon stimulation, were considered dead.
as §3

[5] = test system: southern armyworm (Prodenia Eridania, (Cram.)); assay: Southern Armyworm Leaf Spray Test; settings: larvae, 500 ppm leaf spray, three days
Protocol: as §1, §2
Southern Armyworm Leaf Spray Test
Larvae of the southern armyworm (Prodenia Eridania, (Cram.), reared on Tendergreen bean plants at a temperature of 80°±5° F. and a relative humidity of 50±5 per cent, constituted the test insects.
The test compounds were formulated by diluting the stock suspension with water to give a suspension containing 500 parts of test compound per million parts of final formulation. Potted Tendergreen bean plants of standard height and age were placed on a revolving turntable and sprayed with […] of test compound formulation by use of a DeVilbiss spray gun set at 10 psig. air pressure.
This application, which lasted 25 seconds, was sufficient to wet plants to run-off. As a control, 100-110 milliliters of a water-acetone-emulsifier solution containing no test compound were also sprayed on infested plants. When dry, the paired leaves were separated and each one was placed in a 9 centimeter Petric dish lined with moistened filter paper. Five randomly selected larvae were introduced into each dish and the dishes were closed. The closed dishes were labeled and held at 80°-85° F. for three days. Although the larvae could easily consume the whole leaf within twenty-four hours, no more food was added. Larvae which were unable to move the length of the body, even upon stimulation by prodding, were considered dead. Per cent mortality was recorded for various concentration levels.
as §3

Structure (SMILES)	Bean Aphid pesticidal activity rating [1]	Mite pesticidal activity rating [2]	House-Fly pesticidal activity rating [3]	Mexican Bean Beetle pesticidal activity rating [4]	Southern Armyworm pesticidal activity rating [5]
CNC(=O)ON=C1SC(=C[N+](=O)[O-])SC1(C)C [LXVII]	B	C	A	A	A
CNC(=O)ON=C1SC(=C(C#N)C#N)SC1(C)C [LXII]	C	C	C	C	C
CN(SSc1ccc(C(C)(C)C)cc1)C(=O)ON=C1SC(=C(C#N)C#N)SC1(C)C [LXXII]	A	C	C	A	C
CN(C)N=C1SC(=NOC(=O)N(C)SSC(C)(C)C)C(C)(C)S1 [XLII]	A	A	A	A	A
CNC(=O)ON=C1SC(=CC(C)=O)SC1(C)C [LXVIII]	A	C	A	A	A
CCCCN=C1SC(=NOC(=O)NC)C(C)(C)S1 [LII]	A	C	A	A	B
CCN=C1SC(=NOC(=O)N(C)SC(Cl)(Cl)Cl)C(C)(C)S1 [XLI, 5,5-Dimethyl-2-ethylimino-4-[[O-[N-methyl-N-(trichloromethanesulfenyl)carbamoyl]oximino]]-1,3-dithiolane]	A	A	A	A	B
CC(C)C(=O)C(C)(C)SSN(C)C(=O)ON=C1SC(=C(C#N)C#N)SC1(C)C [LXXV]	A	A	C	B	B
CN(SC(Cl)(Cl)Cl)C(=O)ON=C1SC(=NS(C)(=O)=O)SC1(C)C [LVIII]	C	C	B	B	C
Cc1ccc(S(=O)(=O)N=C2SC(=NOC(=O)N(C)SC(Cl)(Cl)Cl)C(C)(C)S2)cc1 [LX]	C	C	B	B	B
CNC(=O)ON=C1SC(=NS(C)(=O)=O)SC1(C)C [LVII]	B	C	B	B	B
CNC(=O)ON=C1CSC(=CC(C)=O)S1 [LXXVI]	C	C	A	B	C
CCOC(=O)C(C#N)=C1SC(=NOC(=O)N(C)SC(Cl)(Cl)Cl)C(C)(C)S1 [LXV]	B	C	A	A	C
CN=C1SC(=NOC(=O)N(C)SN(C)C(=O)ON=C2SC(=NC)SC2(C)C)C(C)(C)S1 [LXXVIII]	A	A	A	A	A
